Experiments:
Assay in all cases: Quantitative competitive binding assay (KINOMEscan)
ASK2 (MAP3K6) = biological target: T1, ASK2 (MAP3K6) (Homo sapiens, UniProt O95382); details: for remaining binding at 0.05 µM: read-out: Percent control (50 nM); for remaining binding at 0.2 µM: read-out: Percent control (200 nM); for remaining binding at 1 µM: read-out: Percent control (1000 nM); for remaining binding at 10 µM: read-out: Percent control (10 μM)
T1 construct: purchased KINOMEscan (DiscoveRx), San Diego, CA
T1 sequence (O95382 1-1288): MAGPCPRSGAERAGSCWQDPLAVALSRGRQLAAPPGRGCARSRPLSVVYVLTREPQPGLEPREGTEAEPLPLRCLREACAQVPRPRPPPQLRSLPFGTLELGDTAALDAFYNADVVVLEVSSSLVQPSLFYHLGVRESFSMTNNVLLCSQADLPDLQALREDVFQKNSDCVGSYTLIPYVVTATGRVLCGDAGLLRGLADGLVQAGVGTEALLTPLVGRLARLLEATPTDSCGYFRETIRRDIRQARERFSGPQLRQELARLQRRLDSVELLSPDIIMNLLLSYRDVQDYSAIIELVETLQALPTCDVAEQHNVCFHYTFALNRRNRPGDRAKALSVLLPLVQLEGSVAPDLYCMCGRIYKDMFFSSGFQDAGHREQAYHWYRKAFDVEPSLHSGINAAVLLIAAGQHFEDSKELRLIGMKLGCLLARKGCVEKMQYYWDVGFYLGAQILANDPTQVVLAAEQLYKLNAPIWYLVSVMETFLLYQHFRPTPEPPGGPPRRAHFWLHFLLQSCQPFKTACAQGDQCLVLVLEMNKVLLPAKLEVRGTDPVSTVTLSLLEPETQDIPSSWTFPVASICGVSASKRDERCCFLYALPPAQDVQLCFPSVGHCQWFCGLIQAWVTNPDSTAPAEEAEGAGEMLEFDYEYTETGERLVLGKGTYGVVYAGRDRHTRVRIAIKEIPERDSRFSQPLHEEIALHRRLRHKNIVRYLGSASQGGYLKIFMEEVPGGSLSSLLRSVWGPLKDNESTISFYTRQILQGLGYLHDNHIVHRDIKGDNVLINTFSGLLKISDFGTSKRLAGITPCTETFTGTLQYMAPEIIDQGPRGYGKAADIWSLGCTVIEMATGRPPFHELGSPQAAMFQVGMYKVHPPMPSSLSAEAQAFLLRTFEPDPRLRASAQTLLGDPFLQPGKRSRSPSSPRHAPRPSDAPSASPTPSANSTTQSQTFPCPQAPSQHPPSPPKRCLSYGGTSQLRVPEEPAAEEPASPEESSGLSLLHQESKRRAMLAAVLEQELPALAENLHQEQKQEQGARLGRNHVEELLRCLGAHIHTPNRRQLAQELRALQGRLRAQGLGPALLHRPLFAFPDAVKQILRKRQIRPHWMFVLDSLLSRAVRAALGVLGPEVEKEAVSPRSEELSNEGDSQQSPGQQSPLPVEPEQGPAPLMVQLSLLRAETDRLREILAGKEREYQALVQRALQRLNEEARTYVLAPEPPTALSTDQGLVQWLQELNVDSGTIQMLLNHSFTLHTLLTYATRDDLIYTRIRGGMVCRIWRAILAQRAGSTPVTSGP

MAP3K2 = biological target: T2, MAP3K2 (Homo sapiens, UniProt Q9Y2U5); details: for remaining binding at 0.05 µM: read-out: Percent control (50 nM); for remaining binding at 0.2 µM: read-out: Percent control (200 nM); for remaining binding at 1 µM: read-out: Percent control (1000 nM); for remaining binding at 10 µM: read-out: Percent control (10 μM)
T2 construct: purchased KINOMEscan (DiscoveRx), San Diego, CA
T2 sequence (Q9Y2U5 1-619): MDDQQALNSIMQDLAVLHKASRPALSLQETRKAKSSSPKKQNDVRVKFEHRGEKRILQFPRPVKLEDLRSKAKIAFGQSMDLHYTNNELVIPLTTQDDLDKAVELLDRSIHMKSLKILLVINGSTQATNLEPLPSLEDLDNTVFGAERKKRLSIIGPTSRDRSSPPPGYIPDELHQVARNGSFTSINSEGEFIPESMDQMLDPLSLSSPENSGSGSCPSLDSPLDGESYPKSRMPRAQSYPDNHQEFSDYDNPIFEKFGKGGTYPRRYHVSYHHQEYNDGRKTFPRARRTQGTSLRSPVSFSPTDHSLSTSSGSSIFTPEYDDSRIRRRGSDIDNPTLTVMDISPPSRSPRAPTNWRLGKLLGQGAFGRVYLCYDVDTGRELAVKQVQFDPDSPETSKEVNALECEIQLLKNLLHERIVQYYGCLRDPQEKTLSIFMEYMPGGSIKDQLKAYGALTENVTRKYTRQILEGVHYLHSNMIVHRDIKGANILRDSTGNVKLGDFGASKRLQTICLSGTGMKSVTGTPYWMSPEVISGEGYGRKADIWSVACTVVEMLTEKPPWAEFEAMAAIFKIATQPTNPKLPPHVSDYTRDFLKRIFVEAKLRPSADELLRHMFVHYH

MEK6 (MAP2K6) = biological target: T3, MEK6 (MAP2K6) (Homo sapiens, UniProt P52564); details: for remaining binding at 0.05 µM: read-out: Percent control (50 nM); for remaining binding at 0.2 µM: read-out: Percent control (200 nM); for remaining binding at 1 µM: read-out: Percent control (1000 nM); for remaining binding at 10 µM: read-out: Percent control (10 μM)
T3 construct: purchased KINOMEscan (DiscoveRx), San Diego, CA

MST1 (STK4) = biological target: T4, MST1 (STK4) (Homo sapiens, UniProt Q13043); details: for remaining binding at 0.05 µM: read-out: Percent control (50 nM); for remaining binding at 0.2 µM: read-out: Percent control (200 nM); for remaining binding at 1 µM: read-out: Percent control (1000 nM); for remaining binding at 10 µM: read-out: Percent control (10 μM)
T4 construct: purchased KINOMEscan (DiscoveRx), San Diego, CA
T4 sequence (Q13043 1-487): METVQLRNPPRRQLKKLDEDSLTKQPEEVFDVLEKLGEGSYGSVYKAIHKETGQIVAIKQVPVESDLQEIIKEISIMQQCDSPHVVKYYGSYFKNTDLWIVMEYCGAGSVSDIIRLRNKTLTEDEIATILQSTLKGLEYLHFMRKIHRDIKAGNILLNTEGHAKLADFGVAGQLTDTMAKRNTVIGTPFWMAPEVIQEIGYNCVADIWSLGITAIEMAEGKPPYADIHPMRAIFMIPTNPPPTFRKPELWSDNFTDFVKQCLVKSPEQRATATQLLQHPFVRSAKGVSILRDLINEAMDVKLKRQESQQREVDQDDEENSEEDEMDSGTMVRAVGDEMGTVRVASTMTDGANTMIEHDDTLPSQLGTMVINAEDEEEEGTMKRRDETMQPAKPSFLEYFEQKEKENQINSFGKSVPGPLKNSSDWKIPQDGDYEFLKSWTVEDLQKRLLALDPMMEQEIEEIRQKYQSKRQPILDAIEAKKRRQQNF

SRMS = SRMS (Homo sapiens, UniProt Q9H3Y6); details: for IC50: estimated Kd, averaged pointwise estimates, transformed Hill equation, read-out: Calculated estimate of IC50; for remaining binding at 0.05 µM: read-out: Percent control (50 nM); for remaining binding at 0.2 µM: read-out: Percent control (200 nM); for remaining binding at 1 µM: read-out: Percent control (1000 nM); for remaining binding at 10 µM: read-out: Percent control (10 μM)
TNIK = biological target: T5, TNIK (Homo sapiens, UniProt Q9UKE5); details: for remaining binding at 0.05 µM: read-out: Percent control (50 nM); for remaining binding at 0.2 µM: read-out: Percent control (200 nM); for remaining binding at 1 µM: read-out: Percent control (1000 nM); for remaining binding at 10 µM: read-out: Percent control (10 μM)
T5 construct: purchased KINOMEscan (DiscoveRx), San Diego, CA

[1] = estimated Kd, averaged pointwise estimates, transformed Hill equation, read-out: Calculated estimate of IC50

T3 sequence (P52564 whole entry): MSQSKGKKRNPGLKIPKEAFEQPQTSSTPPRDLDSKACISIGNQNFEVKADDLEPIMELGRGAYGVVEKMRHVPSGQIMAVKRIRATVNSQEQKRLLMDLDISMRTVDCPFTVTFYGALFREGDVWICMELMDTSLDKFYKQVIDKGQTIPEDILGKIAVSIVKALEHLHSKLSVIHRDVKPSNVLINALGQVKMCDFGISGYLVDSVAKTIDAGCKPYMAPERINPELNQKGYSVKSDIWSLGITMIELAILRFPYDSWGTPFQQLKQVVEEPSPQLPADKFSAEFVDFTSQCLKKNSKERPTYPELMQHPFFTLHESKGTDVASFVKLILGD
Chain of SRMS (Q9H3Y6 whole entry): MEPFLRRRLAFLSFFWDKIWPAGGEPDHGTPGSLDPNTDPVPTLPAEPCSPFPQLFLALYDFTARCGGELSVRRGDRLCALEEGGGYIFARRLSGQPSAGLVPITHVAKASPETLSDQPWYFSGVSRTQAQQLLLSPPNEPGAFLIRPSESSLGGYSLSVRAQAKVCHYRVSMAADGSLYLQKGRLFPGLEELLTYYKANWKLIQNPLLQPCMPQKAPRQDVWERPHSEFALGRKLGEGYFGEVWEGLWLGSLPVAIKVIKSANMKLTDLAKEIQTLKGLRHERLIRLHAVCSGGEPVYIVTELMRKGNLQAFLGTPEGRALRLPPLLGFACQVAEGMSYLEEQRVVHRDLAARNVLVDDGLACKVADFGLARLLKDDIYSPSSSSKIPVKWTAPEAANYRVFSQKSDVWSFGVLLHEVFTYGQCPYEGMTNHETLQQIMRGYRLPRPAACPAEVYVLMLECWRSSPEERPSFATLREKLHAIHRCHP
T5 sequence (Q9UKE5 whole entry): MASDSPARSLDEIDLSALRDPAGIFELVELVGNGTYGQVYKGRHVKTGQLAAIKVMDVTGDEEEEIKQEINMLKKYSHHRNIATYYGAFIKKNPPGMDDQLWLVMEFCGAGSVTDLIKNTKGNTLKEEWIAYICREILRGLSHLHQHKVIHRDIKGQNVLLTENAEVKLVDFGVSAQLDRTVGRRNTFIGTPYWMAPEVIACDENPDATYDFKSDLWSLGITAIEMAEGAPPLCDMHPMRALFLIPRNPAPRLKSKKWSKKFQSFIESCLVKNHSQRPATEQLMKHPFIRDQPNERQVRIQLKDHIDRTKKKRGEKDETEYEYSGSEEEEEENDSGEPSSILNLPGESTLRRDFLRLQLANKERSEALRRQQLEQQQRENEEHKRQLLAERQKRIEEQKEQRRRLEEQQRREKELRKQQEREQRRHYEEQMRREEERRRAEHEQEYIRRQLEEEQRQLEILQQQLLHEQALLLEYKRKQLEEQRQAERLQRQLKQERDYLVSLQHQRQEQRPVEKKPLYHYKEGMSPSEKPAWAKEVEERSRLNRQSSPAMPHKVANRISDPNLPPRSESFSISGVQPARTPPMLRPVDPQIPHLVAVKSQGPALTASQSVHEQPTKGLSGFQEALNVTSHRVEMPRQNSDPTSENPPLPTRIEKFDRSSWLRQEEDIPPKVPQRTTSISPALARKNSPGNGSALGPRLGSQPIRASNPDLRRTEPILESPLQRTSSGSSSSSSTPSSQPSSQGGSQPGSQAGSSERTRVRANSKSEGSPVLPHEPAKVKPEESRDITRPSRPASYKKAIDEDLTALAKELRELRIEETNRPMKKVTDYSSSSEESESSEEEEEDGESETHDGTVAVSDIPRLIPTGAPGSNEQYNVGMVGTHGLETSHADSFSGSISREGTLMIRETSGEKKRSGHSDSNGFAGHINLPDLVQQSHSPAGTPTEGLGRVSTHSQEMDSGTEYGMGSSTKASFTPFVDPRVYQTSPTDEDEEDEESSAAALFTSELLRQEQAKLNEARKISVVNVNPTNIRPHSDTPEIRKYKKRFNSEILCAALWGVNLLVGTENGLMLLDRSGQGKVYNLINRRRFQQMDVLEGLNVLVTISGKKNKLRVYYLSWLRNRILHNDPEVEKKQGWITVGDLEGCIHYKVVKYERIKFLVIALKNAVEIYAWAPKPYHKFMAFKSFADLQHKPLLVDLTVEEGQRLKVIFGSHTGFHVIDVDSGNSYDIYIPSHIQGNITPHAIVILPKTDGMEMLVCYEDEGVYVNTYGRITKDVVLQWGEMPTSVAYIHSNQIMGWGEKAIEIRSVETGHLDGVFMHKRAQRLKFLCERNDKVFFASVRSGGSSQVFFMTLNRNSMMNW

`CCCS(=O)(=O)Nc1ccc(F)c(C(=O)c2c[nH]c3ncc(-c4ccc(Cl)cc4)cc23)c1F` [vemurafenib] gave a remaining binding at 0.05 µM (ASK2 (MAP3K6)) of 94%, a remaining binding at 0.2 µM (ASK2 (MAP3K6)) of 98% and a remaining binding at 1 µM (ASK2 (MAP3K6)) of 100%. It also gave a remaining binding at 10 µM (ASK2 (MAP3K6)) of 74%, a remaining binding at 0.05 µM (MAP3K2) of 91% and a remaining binding at 0.2 µM (MAP3K2) of 91%. The remaining binding at 1 µM (MAP3K2) was 89%, the remaining binding at 10 µM (MAP3K2) was 83% and the IC50 (MEK6 (MAP2K6); [1]) was 4080 nM. The remaining binding at 0.05 µM (MEK6 (MAP2K6)) was 91%, the remaining binding at 0.2 µM (MEK6 (MAP2K6)) was 97% and the remaining binding at 1 µM (MEK6 (MAP2K6)) was 87%. For the same compound, the remaining binding at 10 µM (MEK6 (MAP2K6)) was 21%, the remaining binding at 0.05 µM (MST1 (STK4)) was 99% and the remaining binding at 0.2 µM (MST1 (STK4)) was 83%. The remaining binding at 1 µM (MST1 (STK4)) was 51%, the remaining binding at 10 µM (MST1 (STK4)) was 12% and the IC50 (SRMS) was 11.1 nM. The remaining binding at 0.05 µM (SRMS) was 24%, the remaining binding at 0.2 µM (SRMS) was 9.6% and the remaining binding at 1 µM (SRMS) was 0.75%. For the same compound, the remaining binding at 10 µM (SRMS) was 0%, the remaining binding at 0.05 µM (TNIK) was 95% and the remaining binding at 0.2 µM (TNIK) was 94%. The remaining binding at 1 µM (TNIK) was 66% and the remaining binding at 10 µM (TNIK) was 11%.
With `CCCS(=O)(=O)Nc1ccc(F)c(C(=O)c2c[nH]c3ncc(Cl)cc23)c1F` [PLX4720] the remaining binding at 0.05 µM (ASK2 (MAP3K6)) was 94%, the remaining binding at 0.2 µM (ASK2 (MAP3K6)) was 100% and the remaining binding at 1 µM (ASK2 (MAP3K6)) was 100%. For the same compound, the remaining binding at 10 µM (ASK2 (MAP3K6)) was 100%, the remaining binding at 0.05 µM (MAP3K2) was 100% and the remaining binding at 0.2 µM (MAP3K2) was 93%. The remaining binding at 1 µM (MAP3K2) was 87%, the remaining binding at 10 µM (MAP3K2) was 41% and the remaining binding at 0.05 µM (MEK6 (MAP2K6)) was 82%. For the same compound, the remaining binding at 0.2 µM (MEK6 (MAP2K6)) was 100%, the remaining binding at 1 µM (MEK6 (MAP2K6)) was 100% and the remaining binding at 10 µM (MEK6 (MAP2K6)) was 47%. The IC50 (MST1 (STK4); [1]) was 6710 nM, the remaining binding at 0.05 µM (MST1 (STK4)) was 100% and the remaining binding at 0.2 µM (MST1 (STK4)) was 93%. The remaining binding at 1 µM (MST1 (STK4)) was 84%, the remaining binding at 10 µM (MST1 (STK4)) was 55% and the IC50 (SRMS) was 0.64 nM. For the same compound, the remaining binding at 0.05 µM (SRMS) was 1.9%, the remaining binding at 0.2 µM (SRMS) was 0.55% and the remaining binding at 1 µM (SRMS) was 0.05%. The remaining binding at 10 µM (SRMS) was 0%, the remaining binding at 0.05 µM (TNIK) was 97% and the remaining binding at 0.2 µM (TNIK) was 89%. The remaining binding at 1 µM (TNIK) was 79% and the remaining binding at 10 µM (TNIK) was 24%.

Source: publication PMC3814616, “BRAF inhibitors suppress apoptosis through off-target inhibition of JNK signaling” (eLife, 2013)
